Consider one compound from ChEMBL document CHEMBL5360625, “Design, Synthesis, and Antitumor Activity Evaluation of 2-Arylmethoxy-4-(2,2'-dihalogen-substituted biphenyl-3-ylmethoxy) Benzylamine Derivatives as Potent PD-1/PD-L1 Inhibitors” (J Med Chem, 2023).

A short description of series [1]: AUC (0 to t) in Sprague-Dawley rat at 10 mg/kg, ip measured upto 48 hrs by LC-MS/MS analysis. Type of series: ADME, organism-based. The conditions noted are these: in vivo. The arrangement: time < 48 hrs, dose 10 mg/kg, route ip.
A short description of series [2]: Clearance in Sprague-Dawley rat at 8 mg/kg, iv measured upto 48 hrs by LC-MS/MS analysis. The series is classed as ADME, organism-based. The conditions noted are these: in vivo, iv, 8 mg/kg, 48 h.
Series [3] is described as follows: Tmax in Sprague-Dawley rat at 8 mg/kg, iv measured upto 48 hrs by LC-MS/MS analysis. Type of series: ADME, organism-based. The conditions noted are these: in vivo.
Series [4] is described as follows: Bioavailability in Sprague-Dawley rat at 40 mg/kg, IG measured upto 48 hrs by LC-MS/MS analysis. Type of series: ADME, organism-based. To be noted: in vivo, po.
Series [5] is described as follows: AUC (0 to infinity) in Sprague-Dawley rat at 10 mg/kg, ip measured upto 48 hrs by LC-MS/MS analysis. Type of series: ADME, organism-based. The arrangement: time < 48 hrs, dose 10 mg/kg, route ip. The conditions noted are these: in vivo.
Series [6] is described as follows: Cmax in Sprague-Dawley rat at 8 mg/kg, iv measured upto 48 hrs by LC-MS/MS analysis. The arrangement: time < 48 hrs, dose 8 mg/kg, route iv. To be noted: in vivo. The series is classed as ADME, organism-based.
The nature of series [7]: AUC (0 to t) in Sprague-Dawley rat at 8 mg/kg, iv measured upto 48 hrs by LC-MS/MS analysis. The series is classed as ADME, organism-based. The arrangement: dose 8 mg/kg, time < 48 hrs, route iv. The conditions noted are these: in vivo.
Series [8] in a line: Clearance in Sprague-Dawley rat at 40 mg/kg, IG measured upto 48 hrs by LC-MS/MS analysis. Type of series: ADME, organism-based. The conditions noted are these: in vivo, po, 40 mg/kg, 48 h.
A short description of series [9]: AUC (0 to t) in Sprague-Dawley rat at 40 mg/kg, IG measured upto 48 hrs by LC-MS/MS analysis. Type of series: ADME, organism-based. The arrangement: dose 40 mg/kg, time < 48 hrs, route ig. The conditions noted are these: in vivo, po.
The nature of series [10]: Half life in Sprague-Dawley rat at 8 mg/kg, iv measured upto 48 hrs by LC-MS/MS analysis. Type of series: ADME, organism-based. The conditions noted are these: in vivo, iv, 8 mg/kg, 48 h.
Another series deals with MC-38. The series is described as follows: Antitumor activity against mouse MC38 cells expressing human PD-L1 protein assessed as reduction in cell viability measured after 48 hrs by CCK-8 assay. Type of series: functional, cell-based. The conditions noted are these: MC-38, 48 h. (In general: Tetrazolium assays rely on reduction of a dye to a coloured formazan, in cell work by metabolically active cells.)

A short description of series [11]: Clearance in Sprague-Dawley rat at 10 mg/kg, ip measured upto 48 hrs by LC-MS/MS analysis. The series is classed as ADME, organism-based. The conditions noted are these: in vivo.
Series [12] can be described thus: Tmax in Sprague-Dawley rat at 10 mg/kg, ip measured upto 48 hrs by LC-MS/MS analysis. Type of series: ADME, organism-based. The conditions noted are these: in vivo.
Series [13] is described as follows: Cmax in Sprague-Dawley rat at 10 mg/kg, ip measured upto 48 hrs by LC-MS/MS analysis. Type of series: ADME, organism-based. To be noted: in vivo. The arrangement: time < 48 hrs, dose 10 mg/kg, route ip.
The nature of series [14]: AUC (0 to infinity) in Sprague-Dawley rat at 8 mg/kg, iv measured upto 48 hrs by LC-MS/MS analysis. Type of series: ADME, organism-based. The arrangement: time < 48 hrs, dose 8 mg/kg, route iv. To be noted: in vivo.
Series [15] is described as follows: Apparent volume of distribution in Sprague-Dawley rat at 8 mg/kg, iv measured upto 48 hrs by LC-MS/MS analysis. The series is classed as ADME, organism-based. To be noted: in vivo, iv, 8 mg/kg, 48 h.
Series [16] in a line: Half life in Sprague-Dawley rat at 10 mg/kg, ip measured upto 48 hrs by LC-MS/MS analysis. The conditions noted are these: in vivo. The series is classed as ADME, organism-based.
The test system of a further series is PBMC. In words: Cytotoxicity against human PBMC cells assessed as reduction in cell viability at 1 to 4 uM measured after 48 hrs by CCK-8 assay. The series is classed as toxicity, cell-based. The conditions noted are these: dose 1-4 µM.
The nature of series [17]: Apparent volume of distribution in Sprague-Dawley rat at 10 mg/kg, ip measured upto 48 hrs by LC-MS/MS analysis. Type of series: ADME, organism-based. The conditions noted are these: in vivo.
Series [18] can be described thus: Apparent volume of distribution in Sprague-Dawley rat at 40 mg/kg, IG measured upto 48 hrs by LC-MS/MS analysis. Type of series: ADME, organism-based. To be noted: in vivo, po.
Series [19] in a line: Half life in Sprague-Dawley rat at 40 mg/kg, IG measured upto 48 hrs by LC-MS/MS analysis. The series is classed as ADME, organism-based. The conditions noted are these: in vivo, po, 40 mg/kg, 48 h.
Series [20] is described as follows: AUC (0 to infinity) in Sprague-Dawley rat at 40 mg/kg, IG measured upto 48 hrs by LC-MS/MS analysis. Type of series: ADME, organism-based. The arrangement: time < 48 hrs, dose 40 mg/kg, route ig. The conditions noted are these: in vivo, po, 48 h.
A short description of series [21]: Cmax in Sprague-Dawley rat at 40 mg/kg, IG measured upto 48 hrs by LC-MS/MS analysis. Type of series: ADME, organism-based. The arrangement: dose 40 mg/kg, time < 48 hrs, route ig. The conditions noted are these: in vivo, po.
Series [22] addresses Programmed cell death protein 1/Programmed cell death 1 ligand 1 (Homo sapiens, UniProt Q9NZQ7). The series is described as follows: Inhibition of PD-1/PD-L1 interaction (unknown origin) incubated for 1 hr by HTRF assay. The series is classed as protein-complex assay.

Sequence of Programmed cell death protein 1/Programmed cell death 1 ligand 1 (Q15116 whole entry): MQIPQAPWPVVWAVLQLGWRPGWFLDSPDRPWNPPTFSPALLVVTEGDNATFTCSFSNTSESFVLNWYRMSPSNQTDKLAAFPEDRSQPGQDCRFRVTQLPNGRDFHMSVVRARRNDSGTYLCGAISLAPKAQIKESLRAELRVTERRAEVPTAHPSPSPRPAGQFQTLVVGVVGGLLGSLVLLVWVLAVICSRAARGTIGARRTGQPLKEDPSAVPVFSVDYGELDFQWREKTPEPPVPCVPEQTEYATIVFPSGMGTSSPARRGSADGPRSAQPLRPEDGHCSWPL
Sequence of Programmed cell death protein 1/Programmed cell death 1 ligand 1 (Q9NZQ7 whole entry): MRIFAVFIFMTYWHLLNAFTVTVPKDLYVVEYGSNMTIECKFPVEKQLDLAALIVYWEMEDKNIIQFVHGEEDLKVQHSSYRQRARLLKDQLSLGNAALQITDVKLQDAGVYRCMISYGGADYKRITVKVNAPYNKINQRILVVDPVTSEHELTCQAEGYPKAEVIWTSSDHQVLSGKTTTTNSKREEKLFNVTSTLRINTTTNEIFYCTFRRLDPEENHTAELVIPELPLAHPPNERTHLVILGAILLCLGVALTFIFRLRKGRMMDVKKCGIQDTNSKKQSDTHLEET

In the case of `N#Cc1cccc(COc2cc(OCc3cccc(-c4ccccc4F)c3Cl)ccc2CNCC(=O)O)c1`, the area under the curve AUC(0-t) at 48 h was 1970 ng·h/mL in [1], 1370 ng·h/mL in series [7] and 2660 ng·h/mL in [9]. The results for the CL in series [2] and in series [8] were 75.3 mL/min/kg and 572.5 mL/min/kg, respectively. The Tmax was determined as 4.8 min in series [3] and 49.8 min in [12]. Moreover, in [4], the bioavailability is 42%. For the same compound, the AUC(0-inf) in series [5] came to 2160 ng·h/mL; in series [14], 1840 ng·h/mL. Moreover, the peak concentration (Cmax) in [6] was 2530 ng/mL; in series [13], 786 ng/mL; in series [21], 1290 ng/mL. Also, the t1/2 is 6.6 min in series [10] and 188 min in [19]. The 50% inhibitory concentration (IC50) in the series on MC-38 is over 8 µM; in [22] it was 6 µM. This compound also showed a CL/F in series [11] of 78 mL/min/kg. Besides, the Vz in series [15] came out at 2.04 L/kg; in series [17] it was 8.28 L/kg; in series [18], 65.83 L/kg. Besides, the half-life in series [16] is 97.8 min. In addition, the Activity result in the series on PBMC is reported as “Non-Toxic”. This compound also had an AUC in series [20] of 2869.12 ng·h/mL.

By AUC(0-t) is commonly meant the area under the concentration-time curve up to a stated or last time point. By Tmax is commonly meant the time from dosing to the highest level. The bioavailability is dose-corrected exposure relative to a reference, in per cent. In general, AUC(0-inf) refers to the area under the concentration-time curve extrapolated to infinity. High values mean more exposure, low ones less exposure. By Cmax is commonly meant the highest concentration seen after dosing. For orientation: IC50 means the concentration that gives 50% inhibition. Broadly, the CL/F is clearance divided by bioavailability, as obtained after extravascular dosing. The term half-life denotes how long it takes for the measured level to halve. The low end stands for fast loss, the high end for slow loss. The term AUC denotes the area under the concentration-time curve, a measure of exposure. Low readings indicate less exposure, high ones more exposure.
